pEC50, pIC50, pKi: −log10 of the molar value.

Data set [1] deals with T1, Thymidylate synthase (Lactobacillus casei, UniProt P00469).
T1 sequence (P00469 whole entry): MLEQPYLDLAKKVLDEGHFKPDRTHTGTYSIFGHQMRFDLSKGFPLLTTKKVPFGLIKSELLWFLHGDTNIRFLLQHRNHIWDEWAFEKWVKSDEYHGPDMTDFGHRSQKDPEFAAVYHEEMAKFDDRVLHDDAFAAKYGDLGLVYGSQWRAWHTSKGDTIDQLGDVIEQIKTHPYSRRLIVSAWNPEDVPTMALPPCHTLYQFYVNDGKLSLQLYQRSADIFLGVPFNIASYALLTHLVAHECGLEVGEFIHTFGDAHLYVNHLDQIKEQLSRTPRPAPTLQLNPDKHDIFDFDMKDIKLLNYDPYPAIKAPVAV
Description: Inhibition of Lactobacillus casei thymidylate synthetase at 37 degree C pH 7.4. Also noted: species or system Lacticaseibacillus casei.

Data set [2] is described as follows: Vmax, rel (FPGS substrate activity) for recombinant human FPGS. The class given is ADME.
In data set [3] the target is Thymidylate synthase (Escherichia coli, UniProt C3SWJ7). Description: Inhibition of Escherichia coli thymidylate synthetase at 37 degree C pH 7.4.
The target of data set [4] is Thymidylate synthase (Homo sapiens, UniProt P04818). Briefly: Inhibition of human thymidylate synthetase at 37 degree C pH 7.4.
In data set [5] the target is Dihydrofolate reductase (Lactobacillus casei, UniProt P00381).
Description: Inhibition of Lactobacillus casei dihydrofolate reductase at 37 degree C pH 7.4
The target in data set [6] is T2, Dihydrofolate reductase (Homo sapiens, UniProt P00374).
T2 sequence (P00374 whole entry): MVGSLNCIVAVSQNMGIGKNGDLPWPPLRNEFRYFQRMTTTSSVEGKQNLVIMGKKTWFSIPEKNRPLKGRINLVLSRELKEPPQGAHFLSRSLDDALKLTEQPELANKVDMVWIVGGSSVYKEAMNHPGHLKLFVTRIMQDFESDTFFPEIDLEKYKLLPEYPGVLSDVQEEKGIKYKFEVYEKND
Description: Inhibition of human dihydrofolate reductase at 37 degree C pH 7.4

Data set [7] deals with T3, Dihydrofolate reductase (Escherichia coli, UniProt P0ABQ4).
T3 sequence (P0ABQ4 whole entry): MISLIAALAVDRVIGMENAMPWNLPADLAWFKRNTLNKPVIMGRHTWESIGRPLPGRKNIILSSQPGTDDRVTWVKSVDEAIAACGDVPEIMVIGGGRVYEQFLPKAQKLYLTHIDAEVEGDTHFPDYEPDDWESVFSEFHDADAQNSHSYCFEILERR
Description: Inhibition of Escherichia coli dihydrofolate reductase at 37 degree C pH 7.4

The test system of data set [8] is CCRF-CEM. Briefly: Growth inhibitory activity against resistant CCRF-CEM human lymphoblastic leukemia cells with decreased uptake of MTX. The class given is functional, cell-based.
The subject of data set [9] is CCRF-CEM. Description: Growth inhibitory activity against MTX resistant CCRF-CEM human lymphoblastic leukemia cells with decreased polyglutamylation. It is filed as functional, cell-based.
The nature of data set [10]: Ratio of Vmax, rel to Km (FPGS substrate activity) for recombinant human FPGS. It is filed as ADME.
Data set [11] concerns CCRF-CEM. Description: Growth inhibitory activity against CCRF-CEM human lymphoblastic leukemia cells. It is filed as functional, cell-based.
In data set [12] the test system is CCRF-CEM. Description: Growth inhibitory activity against MTX resistant subline of CCRF-CEM human lymphoblastic leukemia cells. It is filed as functional, cell-based.
The subject of data set [13] is CCRF-CEM. Briefly: Protection of CCRF-CEM human leukemia cells against the growth inhibitory effect of MTX by 10 uM of hypoxanthine at 5000 nM concentration of compound. The class given is functional.
The test system of data set [14] is CCRF-CEM. Briefly: Protection of CCRF-CEM human leukemia cells against the growth inhibitory effect of MTX by 5 uM of thymidine at 5000 nM concentration of compound. The class given is functional.
Data set [15] relates to CCRF-CEM. Description: Protection of CCRF-CEM human leukemia cells against the growth inhibitory effect of MTX by 10 uM of hypoxanthine and 5 uM of thymidine at 5000 nM concentration of compound. It is filed as functional.
Another data set relates to HL-60. Briefly: Cytotoxicity of compound aganist HL-60 leukemia cell line. The class given is functional. To be noted: Homo sapiens.
A further data set has as its system K562. Briefly: Cytotoxicity of compound against […] leukemia cell line. The class given is functional. The following applies: Homo sapiens.
The next data set concerns SR. Briefly: Cytotoxicity of compound against SR leukemia cell line. It is filed as functional. To be noted: Homo sapiens.
A further data set has as its system 786-0. Description: Cytotoxicity of compound against 786-0 renal cancer cell line. To be noted: Homo sapiens. It is filed as functional.
The next data set has as its system SW-620. Description: Cytotoxicity of compound against SW-620 colon cancer cell line. It is filed as functional. To be noted: Homo sapiens.

Sequence of Dihydrofolate reductase (Lactobacillus casei, UniProt P00381) (P00381 whole entry): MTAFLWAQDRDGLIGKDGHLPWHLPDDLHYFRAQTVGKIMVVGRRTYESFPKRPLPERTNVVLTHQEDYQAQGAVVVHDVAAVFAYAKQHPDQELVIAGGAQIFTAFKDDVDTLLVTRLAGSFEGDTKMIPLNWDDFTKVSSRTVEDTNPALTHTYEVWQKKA
Sequence of Thymidylate synthase (Homo sapiens, UniProt P04818) (P04818 whole entry): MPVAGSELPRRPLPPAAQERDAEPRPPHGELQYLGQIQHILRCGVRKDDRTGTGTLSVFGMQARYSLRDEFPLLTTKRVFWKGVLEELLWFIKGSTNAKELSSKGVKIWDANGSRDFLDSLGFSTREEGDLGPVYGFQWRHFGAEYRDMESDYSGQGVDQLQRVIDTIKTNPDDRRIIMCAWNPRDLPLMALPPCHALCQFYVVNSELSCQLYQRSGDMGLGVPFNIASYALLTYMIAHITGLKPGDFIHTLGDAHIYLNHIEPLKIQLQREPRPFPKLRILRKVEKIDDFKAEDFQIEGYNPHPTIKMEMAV
Sequence of Thymidylate synthase (Escherichia coli, UniProt C3SWJ7) (C3SWJ7 whole entry): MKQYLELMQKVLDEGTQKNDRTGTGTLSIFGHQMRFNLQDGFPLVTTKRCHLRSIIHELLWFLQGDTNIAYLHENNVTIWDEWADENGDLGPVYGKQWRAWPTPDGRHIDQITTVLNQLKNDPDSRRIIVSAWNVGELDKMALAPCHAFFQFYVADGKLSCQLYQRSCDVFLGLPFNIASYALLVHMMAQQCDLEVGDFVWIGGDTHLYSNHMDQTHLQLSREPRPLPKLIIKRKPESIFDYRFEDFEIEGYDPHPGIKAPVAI

In general, pIC50 refers to the IC50 on a negative log10 scale, so that one unit is a factor of ten. Higher therefore signals a small IC50. Usually pEC50 stands for the EC50 on a negative log10 scale, so that one unit is a factor of ten. `Nc1nc2[nH]c(CCCc3ccc(C(=O)N[C@@H](CCC(=O)O)C(=O)O)cc3)cc2c(=O)[nH]1`: the pIC50 at Thymidylate synthase [1] was less than 4.00; against Thymidylate synthase [3] it was less than 3.74; at Thymidylate synthase [4], less than 4.77; against Dihydrofolate reductase [5], less than 3.96; on Dihydrofolate reductase [6], less than 4.62; against Dihydrofolate reductase [7], 4.66. In addition, the Vmax rel in [2] stood at 0.57. The pEC50 with CCRF-CEM [8] is 5.36; in the data set with CCRF-CEM [9], 6.33; in the data set on CCRF-CEM [11] it was 6.34; in the data set on CCRF-CEM [12], 6.07. Further, the Ratio in [10] is reported as 0.63.
One may read the GI50 as the concentration that inhibits growth by half. As to `Nc1nc(N)c2c(CCCCc3ccc(C(=O)N[C@@H](CCC(=O)O)C(=O)O)cc3)coc2n1`, the pIC50 against Thymidylate synthase [1] was less than 4.00; against Thymidylate synthase [3] it was less than 4.00; against Thymidylate synthase [4], less than 4.74; against Dihydrofolate reductase [5], 5.00; on Dihydrofolate reductase [6] it was 4.68; on Dihydrofolate reductase [7], 4.68. The values for the Relative growth with CCRF-CEM [13], in the data set with CCRF-CEM [14] and with CCRF-CEM [15] were 21%, 20% and 74%, respectively. Also, in data set [2], the Vmax rel is recorded as 0.54. For the same compound, the GI50 was 0.0381 µM with HL-60; 0.214 µM in the data set on K562; 0.0478 µM in the data set on SR; more than 100 µM with 786-0; 0.0783 µM with SW-620. The pEC50 was 6.58 with CCRF-CEM [8], 5.50 with CCRF-CEM [9], 6.92 with CCRF-CEM [11] and 5.31 in the data set on CCRF-CEM [12]. Moreover, the Ratio in data set [10] is reported as 0.27.
With `Nc1nc(N)c2c(CCCc3ccc(C(=O)N[C@@H](CCC(=O)O)C(=O)O)cc3)coc2n1`, on Dihydrofolate reductase [5], the pIC50 was 5.00. Also, the pEC50 with CCRF-CEM [8] was 5.98; in the data set with CCRF-CEM [9] it was 7.08; in the data set with CCRF-CEM [11], 7.22; with CCRF-CEM [12], not above 5.34.
As for `Nc1nc(N)c2c(CCc3ccc(C(=O)N[C@@H](CCC(=O)O)C(=O)O)cc3)coc2n1`, the Vmax rel in data set [2] worked out at 0.65. Moreover, the Ratio in [10] is listed as 0.07.
With `Nc1nc2[nH]c(CCCCc3ccc(C(=O)N[C@@H](CCC(=O)O)C(=O)O)cc3)cc2c(=O)[nH]1`, the pIC50 was less than 4.00 on Thymidylate synthase [1]; less than 3.77 at Thymidylate synthase [3]; less than 4.77 against Thymidylate synthase [4]; less than 3.96 against Dihydrofolate reductase [5]; less than 4.70 against Dihydrofolate reductase [6]; 4.00 against Dihydrofolate reductase [7]. The Relative growth with CCRF-CEM [13] worked out at 85%; in the data set on CCRF-CEM [14], 18%; in the data set on CCRF-CEM [15] it was 85%. For the same compound, in data set [2], the Vmax rel was 0.54. Further, the GI50 in the data set with HL-60 was determined as 6.56 µM; in the data set with K562, 0.398 µM; with SR it was 0.609 µM; with 786-0, 0.898 µM; in the data set with SW-620 it was 3.81 µM. Also, the pEC50 in the data set on CCRF-CEM [8] is 5.09; in the data set with CCRF-CEM [9], 4.74; in the data set on CCRF-CEM [11], 5.96; with CCRF-CEM [12] it was 5.52. Moreover, in data set [10], the Ratio is listed as 0.086.
Regarding `Nc1nc(N)c2nc(CNc3ccc(C(=O)N[C@@H](CCC(=O)O)C(=O)O)cc3)cnc2n1` [AMINOPTERIN], the Vmax rel in data set [2] stood at 1. Moreover, the Ratio in data set [10] was determined as 0.19.
A word on the pKi: it is the Ki on a negative log10 scale, so that one unit is a factor of ten. Low values mean a large Ki, high ones a small Ki. Compound `Nc1nc2[nH]cc(CCc3ccc(C(=O)N[C@@H](CCC(=O)O)C(=O)O)cc3)c2c(=O)[nH]1` [PEMETREXED] had a pKi on Thymidylate synthase [4] of 6.47.

Source of the values: ChEMBL document CHEMBL1141150, “Synthesis of classical, four-carbon bridged 5-substituted furo[2,3-d]pyrimidine and 6-substituted pyrrolo[2,3-d]pyrimidine analogues as antifolates” (J Med Chem, 2005).
